Results: article PMC2715367 (Journal of medicinal chemistry, 2009)
Marks after values point to notes of the source that are not given here.

Legend:
[1] = molecular target: rat PFT (Rattus norvegicus, UniProt Q02293+Q04631); experiment: Rat PFT scintillation proximity assay; type: biochemical; conditions: for Fold increase in PFT IC50 (decrease in PFT inhibition) compared to tipifarnib: rat PFT
[2] = molecular target: T1, human 14DM (Homo sapiens, UniProt Q16850); experiment: Inhibition of human 14DM; type: biochemical; conditions: same conditions as Tc14DM assay
T1 sequence (Q16850 1-509): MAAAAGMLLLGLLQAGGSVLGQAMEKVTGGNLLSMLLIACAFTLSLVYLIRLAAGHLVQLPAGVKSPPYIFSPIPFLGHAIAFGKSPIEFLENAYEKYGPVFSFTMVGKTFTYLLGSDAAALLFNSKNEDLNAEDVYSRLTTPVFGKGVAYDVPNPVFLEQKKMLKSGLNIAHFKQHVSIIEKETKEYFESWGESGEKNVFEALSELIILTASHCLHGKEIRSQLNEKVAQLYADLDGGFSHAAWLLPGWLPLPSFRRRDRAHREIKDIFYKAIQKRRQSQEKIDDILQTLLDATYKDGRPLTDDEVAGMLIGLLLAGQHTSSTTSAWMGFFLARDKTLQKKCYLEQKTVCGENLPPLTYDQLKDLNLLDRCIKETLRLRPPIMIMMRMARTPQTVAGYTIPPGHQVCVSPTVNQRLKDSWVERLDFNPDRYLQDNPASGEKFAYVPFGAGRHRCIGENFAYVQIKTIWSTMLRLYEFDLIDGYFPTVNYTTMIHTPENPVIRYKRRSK

[3] = molecular target: recombinant human CYP3A4 enzyme (Homo sapiens, UniProt P08684); experiment: CYP3A4 inhibition assay; type: in vitro ADME; conditions: in vitro
[4] = tested on: T. cruzi trypomastigotes (Tulahuen strain); experiment: Efficacy studies in T. cruzi infected mice; type: in vivo; conditions: for Weight loss in mice: 100 mg/kg twice per day, days 8−13; for Survival of infected mice: oral gavage for 20 days from day 8 post-infection
[5] = Pharmacokinetic studies in mice; conditions: female, BALB/c, mouse, po, 50 mg/kg
[6] = tested on: T. cruzi amastigotes; experiment: T. cruzi growth inhibition assay; type: cell-based; conditions: Trypanosoma cruzi, read-out: T. cruzi amastigote EC50
[7] = tested on: mammalian cytochrome P450 enzymes; conditions: cited from earlier work
[8] = tested on: T. cruzi PFT enzyme; conditions: cited from earlier work
[9] = oral; cited from earlier work
[10] = cited from earlier work

Chain of recombinant human CYP3A4 enzyme (P08684 whole entry): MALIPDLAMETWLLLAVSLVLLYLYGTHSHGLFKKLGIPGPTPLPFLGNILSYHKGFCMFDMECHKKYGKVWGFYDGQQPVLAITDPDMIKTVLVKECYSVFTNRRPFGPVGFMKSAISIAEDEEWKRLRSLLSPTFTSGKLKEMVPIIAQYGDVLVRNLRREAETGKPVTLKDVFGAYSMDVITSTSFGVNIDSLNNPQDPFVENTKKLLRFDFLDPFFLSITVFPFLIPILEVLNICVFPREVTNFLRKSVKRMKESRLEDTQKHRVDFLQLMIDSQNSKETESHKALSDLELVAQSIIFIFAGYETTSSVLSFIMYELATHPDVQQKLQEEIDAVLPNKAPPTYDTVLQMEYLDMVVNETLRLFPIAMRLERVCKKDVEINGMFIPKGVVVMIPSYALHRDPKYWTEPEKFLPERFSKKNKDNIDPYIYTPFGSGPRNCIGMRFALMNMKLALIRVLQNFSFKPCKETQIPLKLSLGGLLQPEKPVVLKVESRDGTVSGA

For Cc1cc([C@@](N)(c2ccc3c(c2)c(-c2cccc(Cl)c2)cc(=O)n3C)c2cncn2C)ccc1Cl (racemic) [Compound 2a], the “Fold increase in PFT IC50 (decrease in PFT inhibition) compared to tipifarnib” value [1] was 19 fold.
For Cc1c(Cl)cccc1-c1cc(=O)n(C)c2ccc([C@](N)(c3ccc(Cl)cc3)c3cncn3C)cc12 (racemic) [Compound 2c], the “Inhibition of human 14DM” value [2] was “do not inhibit”.
For Cc1ccccc1-c1cc(=O)n(C)c2ccc([C@](N)(c3ccc(Cl)cc3)c3cncn3C)cc12 (racemic) [Compound 2d], the “Fold increase in PFT IC50 (decrease in PFT inhibition) compared to tipifarnib” value [1] was “about 430 fold”.
For Cn1cncc1[C@@](N)(c1ccc(Cl)cc1)c1ccc2c(c1)c(-c1cccc3ccccc13)cc(=O)n2C (racemic) [Compound 2f], the “Inhibition of human 14DM” value [2] was “do not inhibit”.
For COC(c1ccc(Cl)cc1)(c1ccc2c(c1)c(-c1cccc(Cl)c1C)cc(=O)n2C)c1cncn1C (racemic) [Compound 2g, 4-(3-Chloro-2-methylphenyl)-6-((4-chlorophenyl)(methoxy)(1-methyl-1H-imidazol-5-yl)methyl)-1-methylquinolin-2(1H)-one], the “Inhibition of CYP3A4 (in words)” value [3] was “weak inhibition”, the “Inhibition of human 14DM” value [2] was “do not inhibit” and the “Weight loss in mice” value [4] was “some weight loss was observed”. The “Survival of infected mice” value [4] was “One mouse in the 2g group died after the end of treatment”, the Cmax ([5]; plasma) was 5 to 7 µM and the “Ratio IC50/EC50” value ([1]; PFT IC50 / T. cruzi amastigote EC50) was >7700 ^*. For the same molecule, the inhibition at 5 µM ([1]; read-out: PFT inhibition at highest concentration evaluated) was under 50%.
For O=C(Cn1ccnc1[N+](=O)[O-])NCc1ccccc1 [Benznidazole, benznidazole], the “Mice with positive parasite blood cultures” value ([4]; surviving mice sacrificed at day 103 post-infection) was 3 of 6.
In the case of Cn1cncc1[C@@](N)(c1ccc(Cl)cc1)c1ccc2c(c1)c(-c1cccc(Cl)c1)cc(=O)n2C [Tipifarnib, tipifarnib], the “Inhibition of human 14DM” value [2] is reported as “do not inhibit”, the “Weight loss in mice” value [4] is reported as “some weight loss was observed” and the “Survival of infected mice” value [4] is reported as “did not protect the mice from death”. For the same molecule, the “Delay in development of high parasitemia” value ([4]; oral gavage twice daily from day 8 post-infection) was 3−4 days, the Cmax ([5]; in vivo) was 5 to 7 µM and the half-life ([5]; in vivo) was about 4 h. The EC50 [6] was 6 nM, the “Inhibitory activity against mammalian cytochrome P450 enzymes” value [7] was “very little inhibitory activity” and the “Activity against isolated T. cruzi PFT enzyme” value [8] was “weak activity”. For the same molecule, the Terminal half-life [9] was 16 h and the “Dose limiting toxicities in humans” value [10] was “bone marrow suppression”.
